Values of other authors as cited in US20100297195A1, “CONTROLLED RELEASE LAMOTRIGINE FORMULATIONS” (RANBAXY LABORATORIES LIMITED, priority 2009, published 2010).

Details: oral administration

Nc1nnc(-c2cccc(Cl)c2Cl)c(N)n1 [Lamotrigine, 3,5-diamino-6-(2,3-dichlorophenyl)-1,2,4-triazine]
absolute bioavailability: 98%
effect of food on bioavailability: not affected by food
